Test results published in patent US20240391936A1, “TETRAHYDROTHIENO PYRIDINE DERIVATIVES AS DDRS INHIBITORS” (CHIESI FARMACEUTICI S.P.A., priority 2021, published 2024).

What was measured:
[1] = biological target: T1, DDR1 (Homo sapiens, UniProt Q08345); assay: DDR1 cell based assay (PathHunter U2OS DDR1 assay); parameters: host or cells: U2OS-DDR1 (PathHunter); conditions: U2OS-DDR1 cells, bovine Type II Collagen 20 μg/ml
Outline: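 Receptor activation measured by enzyme-fragment complementation luminescence in engineered U2OS cells. Compound added 30 min before overnight challenge with 20 μg/ml bovine collagen II; data scaled between vehicle and collagen-stimulated controls, IC50 derived by four-parameter variable-slope fitting.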

[2] = biological target: T1, DDR1; assay: DDR1 binding assay (LanthaScreen Europium Kinase Binding assay); parameters: purchased Carna Biosciences; conditions: binding assay, 5 nM DDR1, 20 nM Kinase Tracer 178; Ki from IC50 by Cheng-Prusoff; read-out: Ki DDR1
Outline: (§1)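 TR-FRET tracer-displacement format: 665/615 nm emission ratio (340 nm excitation) gave IC50 by 4-parameter fit, then Ki via Cheng-Prusoff. Each kinase at 5 nM with 2 nM Eu-anti-GST antibody and Tracer 178 (DDR1 20 nM, DDR2 10 nM), 1 h, room temperature, HEPES pH 7.5 buffer.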

[3] = biological target: T2, DDR2 (Homo sapiens, UniProt Q16832); assay: DDR2 binding assay (LanthaScreen Europium Kinase Binding assay); parameters: purchased Life Technologies; conditions: binding assay, 5 nM DDR2, 10 nM Kinase Tracer 178; Ki from IC50 by Cheng-Prusoff; read-out: Ki DDR2
T2 sequence (Q16832 22-855): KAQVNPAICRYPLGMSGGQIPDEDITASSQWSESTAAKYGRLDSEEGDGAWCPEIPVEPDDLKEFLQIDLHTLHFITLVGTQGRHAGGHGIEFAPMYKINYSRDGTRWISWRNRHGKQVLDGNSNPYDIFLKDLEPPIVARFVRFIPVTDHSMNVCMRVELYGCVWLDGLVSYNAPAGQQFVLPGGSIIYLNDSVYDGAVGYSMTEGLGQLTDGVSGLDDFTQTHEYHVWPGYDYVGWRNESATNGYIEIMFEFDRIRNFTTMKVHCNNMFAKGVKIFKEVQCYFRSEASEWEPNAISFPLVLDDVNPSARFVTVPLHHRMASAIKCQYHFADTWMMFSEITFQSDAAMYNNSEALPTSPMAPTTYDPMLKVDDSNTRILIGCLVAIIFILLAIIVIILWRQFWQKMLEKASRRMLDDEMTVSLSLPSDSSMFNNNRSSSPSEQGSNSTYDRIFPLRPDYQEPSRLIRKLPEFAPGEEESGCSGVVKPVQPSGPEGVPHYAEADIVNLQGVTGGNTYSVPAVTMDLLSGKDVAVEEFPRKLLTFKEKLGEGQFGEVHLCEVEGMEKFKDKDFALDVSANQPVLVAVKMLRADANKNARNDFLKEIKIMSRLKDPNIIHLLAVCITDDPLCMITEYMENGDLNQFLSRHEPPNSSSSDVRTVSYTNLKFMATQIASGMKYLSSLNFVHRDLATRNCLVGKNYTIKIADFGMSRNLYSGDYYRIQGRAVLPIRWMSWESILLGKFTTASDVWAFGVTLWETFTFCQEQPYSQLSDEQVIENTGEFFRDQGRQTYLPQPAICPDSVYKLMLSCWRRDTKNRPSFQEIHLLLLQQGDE
Outline: as §1

T1 sequence (Q08345 19-913): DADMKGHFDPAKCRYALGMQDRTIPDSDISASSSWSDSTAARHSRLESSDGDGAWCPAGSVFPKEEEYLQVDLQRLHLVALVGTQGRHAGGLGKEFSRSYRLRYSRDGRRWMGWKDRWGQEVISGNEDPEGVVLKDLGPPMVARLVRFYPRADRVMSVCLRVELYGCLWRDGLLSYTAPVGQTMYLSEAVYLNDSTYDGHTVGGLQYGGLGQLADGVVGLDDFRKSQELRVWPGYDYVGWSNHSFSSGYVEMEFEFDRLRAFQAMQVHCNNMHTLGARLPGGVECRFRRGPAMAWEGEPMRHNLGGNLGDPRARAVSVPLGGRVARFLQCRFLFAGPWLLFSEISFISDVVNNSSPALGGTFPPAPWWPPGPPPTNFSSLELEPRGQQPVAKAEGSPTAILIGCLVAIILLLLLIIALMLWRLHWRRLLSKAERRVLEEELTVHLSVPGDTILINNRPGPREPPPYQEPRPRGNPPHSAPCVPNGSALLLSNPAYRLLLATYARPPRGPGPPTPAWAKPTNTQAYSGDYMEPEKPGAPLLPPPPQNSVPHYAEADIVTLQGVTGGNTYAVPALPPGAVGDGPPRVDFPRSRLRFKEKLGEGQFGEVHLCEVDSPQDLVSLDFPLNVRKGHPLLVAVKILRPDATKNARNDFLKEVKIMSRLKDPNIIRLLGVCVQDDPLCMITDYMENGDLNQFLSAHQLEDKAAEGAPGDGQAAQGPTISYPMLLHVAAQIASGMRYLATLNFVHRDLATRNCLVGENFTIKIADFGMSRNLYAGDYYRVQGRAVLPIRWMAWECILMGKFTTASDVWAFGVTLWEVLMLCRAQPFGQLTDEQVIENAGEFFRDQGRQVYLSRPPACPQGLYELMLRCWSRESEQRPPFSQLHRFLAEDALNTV

| SMILES | IC50 [1] [µM] | Ki [2] [µM] | Ki [3] [µM] |
| --- | --- | --- | --- |
| CN(C)[C@@H]1CCN(Cc2cc(NC(=O)c3csc4c3CCN(Cc3cnc5cnccn35)C4)cc(C(F)(F)F)c2)C1 [Example 160, (R)-N-(3-((3-(dimethylamino)pyrrolidin-1-yl)methyl)-5-(trifluoromethyl)phenyl)-6-(imidazo[1,2-a]pyrazin-3-ylmethyl)-4,5,6,7-tetrahydrothieno[2,3-c]pyridine-3-carboxamide] | 0.05 to 0.08 | < 0.025 | < 0.025 |
| CC1Cc2c(C(=O)Nc3cccc(C(F)(F)F)c3)csc2CN1Cc1cnc2cnccn12 (single isomer, unassigned) [Example 105, 6-(imidazo[1,2-a]pyrazin-3-ylmethyl)-5-methyl-N-(3-(trifluoromethyl)phenyl)-4,5,6,7-tetrahydrothieno[2,3-c]pyridine-3-carboxamide] | 0.05 to 0.08 | < 0.025 | < 0.025 |
| CN1CCN(c2cc(NC(=O)c3csc4c3CCN(C(=O)c3cnc5ccccn35)C4)cc(C(F)(F)F)c2)CC1 [Example 177, 6-(imidazo[1,2-a]pyridine-3-carbonyl)-N-(3-(4-methylpiperazin-1-yl)-5-(trifluoromethyl)phenyl)-4,5,6,7-tetrahydrothieno [2,3-c]pyridine-3-carboxamide] | 0.05 to 0.08 | < 0.025 | < 0.025 |
| O=C(Nc1ccc(CN2CCCC2)c(C(F)(F)F)c1)c1csc2c1CCN(C(=O)c1cnc3ccccn13)C2 [Example 22, 6-(imidazo[1,2-a]pyridine-3-carbonyl)-N-(4-(pyrrolidin-1-ylmethyl)-3-(trifluoromethyl)phenyl)-4,5,6,7-tetrahydrothieno[2,3-c]pyridine-3-carboxamide] | 0.05 to 0.08 | < 0.025 | < 0.025 |
| COc1ccn2c(C(=O)N3CCc4c(C(=O)Nc5cncc(C(F)(F)F)c5)csc4C3)cnc2c1 [Example 142, 6-(7-methoxyimidazo[1,2-a]pyridine-3-carbonyl)-N-(5-(trifluoromethyl)pyridin-3-yl)-4,5,6,7-tetrahydrothieno[2,3-c]pyridine-3-carboxamide] | 0.05 to 0.08 | < 0.025 | < 0.025 |
| CC(C)(C)c1cncc(NC(=O)c2csc3c2CCN(C(=O)c2cnn4ccncc24)C3)c1 [Example 123, N-(5-(tert-butyl)pyridin-3-yl)-6-(pyrazolo[1,5-a]pyrazine-3-carbonyl)-4,5,6,7-tetrahydrothieno[2,3-c]pyridine-3-carboxamide] | 0.05 to 0.08 | < 0.025 | < 0.025 |
| CN(C)Cc1ccc(NC(=O)c2csc3c2CCN(C(=O)c2cnn4ccncc24)C3)cc1C(F)(F)F [Example 171, N-(4-((dimethylamino)methyl)-3-(trifluoromethyl)phenyl)-6-(pyrazolo[1,5-a]pyrazine-3-carbonyl)-4,5,6,7-tetrahydro thieno[2,3-c]pyridine-3-carboxamide] | 0.05 to 0.08 | < 0.025 | < 0.025 |
| CN1CCC(Oc2ccc(NC(=O)c3csc4c3CCN(C(=O)c3cnc5ccccn35)C4)cc2C(F)(F)F)C1 (stereo not drawn) [Example 31, 6-(imidazo[1,2-a]pyridine-3-carbonyl)-N-(4-((1-methylpyrrolidin-3-yl)oxy)-3-(trifluoromethyl)phenyl)-4,5,6,7-tetrahydrothieno[2,3-c]pyridine-3-carboxamide] | 0.05 to 0.08 | < 0.025 | < 0.025 |
| CN1CCN(c2cc(NC(=O)c3csc4c3CCN(C(=O)c3cnn5ccncc35)C4)cc(C(F)(F)F)c2)CC1 [Example 178, N-(3-(4-methylpiperazin-1-yl)-5-(trifluoromethyl)phenyl)-6-(pyrazolo[1,5-a]pyrazine-3-carbonyl)-4,5,6,7-tetrahydrothieno[2,3-c]pyridine-3-carboxamide] | 0.05 to 0.08 | < 0.025 | < 0.025 |

More lines, now with the values ahead:

| IC50 [1] [µM] | Ki [2] [µM] | Ki [3] [µM] | SMILES |
| --- | --- | --- | --- |
| 0.025 to 0.05 | < 0.025 | 0.025 to 0.05 | CN1CCN(c2ccc3ncc(C(=O)N4CCc5c(C(=O)Nc6cc(C(C)(C)C)n(C)n6)csc5C4)n3c2)CC1 [Example 145, N-(5-(tert-butyl)-1-methyl-1H-pyrazol-3-yl)-6-(6-(4-methylpiperazin-1-yl)imidazo[1,2-a]pyridine-3-carbonyl)-4,5,6,7-tetrahydrothieno[2,3-c]pyridine-3-carboxamide] |
| 0.05 to 0.08 | < 0.025 | < 0.025 | O=C(Nc1cncc(C(F)(F)F)c1)c1csc2c1CCN(C(=O)c1cnc3n1CCCN3)C2 [Example 120, 6-(5,6,7,8-tetrahydroimidazo[1,2-a]pyrimidine-3-carbonyl)-N-(5-(trifluoromethyl)pyridin-3-yl)-4,5,6,7-tetrahydrothieno[2,3-c]pyridine-3-carboxamide] |
| < 0.025 | < 0.025 | < 0.025 | CN(C)C1CCN(Cc2cc(NC(=O)c3csc4c3CCN(C(=O)c3cnc5ccccn35)C4)cc(C(F)(F)F)c2)C1 (stereo not drawn) [Example 56, N-(3-((3-(dimethylamino)pyrrolidin-1-yl)methyl)-5-(trifluoromethyl)phenyl)-6-(imidazo[1,2-a]pyridine-3-carbonyl)-4,5,6,7-tetrahydrothieno[2,3-c]pyridine-3-carboxamide] |
| 0.025 to 0.05 | < 0.025 | < 0.025 | CC(C)(C)c1cc(NC(=O)c2csc3c2CCN(C(=O)c2cnc4ccccn24)C3)n(-c2ccc(F)cc2)n1 [Example 5, N-(3-(tert-butyl)-1-(4-fluorophenyl)-1H-pyrazol-5-yl)-6-(imidazo[1,2-a]pyridine-3-carbonyl)-4,5,6,7-tetrahydrothieno[2,3-c]pyridine-3-carboxamide] |
| < 0.025 | < 0.025 | < 0.025 | COCCOc1ccn2c(C(=O)N3CCc4c(C(=O)Nc5cccc(C(F)(F)F)c5)csc4C3)cnc2c1 [Example 138, 6-(7-(2-methoxyethoxy)imidazo[1,2-a]pyridine-3-carbonyl)-N-(3-(trifluoromethyl)phenyl)-4,5,6,7-tetrahydrothieno[2,3-c]pyridine-3-carboxamide] |
| 0.025 to 0.05 | < 0.025 | < 0.025 | Cc1n[nH]c2ncc(CN3CCc4c(C(=O)Nc5cc(C6CC6)nn5C)csc4C3)cc12 [Example 146, N-(3-cyclopropyl-1-methyl-1H-pyrazol-5-yl)-6-((3-methyl-1H-pyrazolo[3,4-b]pyridin-5-yl)methyl)-4,5,6,7-tetrahydrothieno[2,3-c]pyridine-3-carboxamide] |
| < 0.025 | < 0.025 | < 0.025 | CN(C)Cc1cc(NC(=O)c2csc3c2CCN(C(=O)c2cnc4ccccn24)C3)cc(C(F)(F)F)c1 [Example 19, N-(3-((dimethylamino)methyl)-5-(trifluoromethyl)phenyl)-6-(imidazo[1,2-a]pyridine-3-carbonyl)-4,5,6,7-tetrahydrothieno[2,3-c]pyridine-3-carboxamide] |
| < 0.025 | < 0.025 | < 0.025 | O=C(Nc1cccc(C(F)(F)F)c1)c1csc2c1CCN(C(=O)c1cnc3n1CCCC3)C2 [Example 95, 6-(5,6,7,8-tetrahydroimidazo[1,2-a]pyridine-3-carbonyl)-N-(3-(trifluoromethyl)phenyl)-4,5,6,7-tetrahydrothieno[2,3-c]pyridine-3-carboxamide] |
| 0.025 to 0.05 | < 0.025 | < 0.025 | CN(C)CCOc1cc(NC(=O)c2csc3c2CCN(C(=O)c2cnc4ccccn24)C3)cc(C(F)(F)F)c1 [Example 25, N-(3-(2-(dimethylamino)ethoxy)-5-(trifluoromethyl)phenyl)-6-(imidazo[1,2-a]pyridine-3-carbonyl)-4,5,6,7-tetrahydrothieno[2,3-c]pyridine-3-carboxamide] |
| 0.025 to 0.05 | < 0.025 | < 0.025 | Cn1nc(C2CCC2)cc1NC(=O)c1csc2c1CCN(C(=O)c1cnc3ccccn13)C2 [Example 35, N-(3-cyclobutyl-1-methyl-1H-pyrazol-5-yl)-6-(imidazo[1,2-a]pyridine-3-carbonyl)-4,5,6,7-tetrahydrothieno[2,3-c]pyridine-3-carboxamide] |
